This note sets out measurements from patent US20250049713A1, “LIPID NANOPARTICLES FOR DELIVERY OF AGENTS” (Massachusetts Institute of Technology, priority 2023, published 2025).

The structures appear in SMILES notation.

The assay relates to VE-cadherin (Cdh5) mRNA. The experiment in a line: In vivo endothelial Cdh5 gene silencing after intravenous siCdh5 LNP, tissue mRNA by RT-qPCR. Also on record: species or system mice. As to conditions: for RNA delivery to endothelial cells vs DOTAP and EDMPC: formulation screening, summary statement. The text has this:
Cadherin (Cdh5), also known as vascular endothelial cadherin (VE-cadherin) is a useful target gene to evaluate endothelial cell siRNA delivery in that Cdh5 expression is strictly limited to endothelial cells. By quantifying Cdh5 mRNA remaining in the tissues after siCdh5 administration, RNA delivery efficiency to endothelial cells can be evaluated.
Animal Experiments: All animal studies were approved by the MIT Institutional Animal Care and Use Committee (CAC) and were consistent with local, state, and federal regulations as applicable. All experimental procedures were performed with ethical compliance and approval under the guidelines for Division of Comparative Medicine by Massachusetts Institute of Technology. Female C57BL/6 mice (6 weeks) were obtained from Jackson Laboratory, housed in an MIT animal facility, and acclimated for at least 3 days before the initiation of a study.
For intravenous administration, siRNA-lipid nanoparticles diluted in PBS were injected […] using 29 g, 3/10 cc insulin syringes (BD Biosciences) after gentle warming of the animals using a heat lamp. For intramuscular administration, siRNA-lipid nanoparticles diluted in PBS were injected […] using 29 g, 3/10 cc insulin syringes (BD Biosciences).
48-72 hours after injection, organs or tissues including the heart, liver, spleen, lung, kidneys, muscle (quadriceps), and brain were collected and soaked in RNAlater solution (Thermo Fisher) for 12-48 hours at 4° C. and stored at −20° C. after the removal of RNAlater.
Tissue mRNA Quantification by RT-qPCR: Total RNA was isolated from tissues using the TRIzol (Thermo Fisher) and Direct-zol-96 MagBead (Zymo Research), or Quick-RNA MagBead (Zymo Research). Briefly, tissue punches were placed in a deep-well 96 well plate with 4-mm stainless beads and lysed with 350 μL TRIzol, or 250 μL DNA/RNA Shield (Zymo Reaearch) using a GenoGrinder2010. Total RNA was further purified using Direct-zol-96 MagBead (Zymo Research) or Quick-RNA MagBead (Zymo Research) according to the manufacturer's protocol.
cDNA was synthesized using ABI High Capacity cDNA Reverse Transcription Kit (Applied Biosystems #4368814) according to manufacturer instructions. Briefly, 5 μl of a master mix containing 1 μl 10X Buffer, 0.4 μl 25X dNTPs, 1 μl 10X Random primers, 0.5 μl Reverse Transcriptase, and 2.1 μl of water per reaction was added to 5 μl total RNA solution that was isolated using the above protocol. Plates were sealed, mixed, and incubated on a thermal cycler for 10 minutes at 25° C., followed by 2 hours at 37° C. and 5 minutes at 85° C.
Gene expression was analyzed in qPCR with Luna® Universal Probe RT-qPCR Kit (NEB) and Taqman probes-Cdh5 (Mm00486938_m1), and Gusb (Mm01197698_m1) or B2m (Mm00437762_m1). Samples were amplified using a LightCycler 480 qPCR machine (Roche). Cdh5 expression was normalized to B2m or Gusb.
Background: Quantitative PCR measures a nucleic acid by following its amplification.

Where [1] appears, read: Example 3: 20% cationic lipid LNPs, siCdh5 0.5 mg/kg i.v.

`CCCCCCCCCCCCCC(=O)OCCN(CCOC(=O)CCCCCCCCCCCCC)C(=O)C[N+](C)(C)C` [DC-6-14, O,O′-ditetradecanoyl-N-(a-trimethylammonioacetyl) diethanolamine]: the “RNA delivery to endothelial cells vs DOTAP and EDMPC” value (“RNA delivery … vs DOTAP and EDMPC” below) is “much more efficiently”. Under setting [1], the “delivery to endothelial cells among screened cationic lipids” value is “most efficacious delivery to endothelial cells”.
Regarding `CCCCCCCCCCCCCCCC(=O)OCC(C[N+](C)(C)C)OC(=O)CCCCCCCCCCCCCCC` (centres unmarked) [DPTAP, 1,2-dipalmitoyl-3-trimethylammonium-propane], the “RNA delivery … vs DOTAP and EDMPC” value is on record as “much more efficiently”. In addition, under setting [1], the “delivery to endothelial cells among screened cationic lipids” value is recorded as “most efficacious delivery to endothelial cells” and the “endothelial delivery, DPTAP (16:0 TAP) vs DSTAP (18:0 TAP)” value is “significantly more efficient endothelial delivery”.
On to `CCCCCCCCCCCCCC(=O)OC[C@H](COP(=O)(OCC)OCC[N+](C)(C)C)OC(=O)CCCCCCCCCCCCC` (some centres unmarked) [EDMPC, 1,2-dimyristoyl-sn-glycero-3-ethylphosphocholine], for which the “endothelial delivery, EDMPC (14:0 EPC) vs EDLPC (12:0 EPC)” value under setting [1] was “more efficient endothelial delivery”.
On to `CCCCCCCCCCCCCCCC(=O)OC[C@H](COP(=O)(OCC)OCC[N+](C)(C)C)OC(=O)CCCCCCCCCCCCCCC` (some centres unmarked) [EDPPC, 1,2-dipalmitoyl-sn-glycero-3-ethylphosphocholine], for which the “RNA delivery … vs DOTAP and EDMPC” value is on record as “much more efficiently”. For the same compound, under setting [1], the “delivery to endothelial cells among screened cationic lipids” value is recorded as “most efficacious delivery to endothelial cells”.
